Measured values reported in ChEMBL document CHEMBL1201862, “PubChem BioAssay data set” (2004).
The source made the active and inactive calls.

How the values were obtained:
[1] = biological target: T1, Heat shock factor protein 1 (Mus musculus, UniProt P38532); assay: inhibition of MG132-induced HSE-luciferase signal, confirmation, cell-based, NIH3T3, luminescence, dose retest (AID 2382); format: functional;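 note: NIH3T3 fibroblasts with HSF1-driven luciferase reporter stressed by proteasome inhibitor MG132; luminescence from HSF1-driven luciferase expression after 8 hours of MG132 stress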
T1 sequence (P38532 whole entry): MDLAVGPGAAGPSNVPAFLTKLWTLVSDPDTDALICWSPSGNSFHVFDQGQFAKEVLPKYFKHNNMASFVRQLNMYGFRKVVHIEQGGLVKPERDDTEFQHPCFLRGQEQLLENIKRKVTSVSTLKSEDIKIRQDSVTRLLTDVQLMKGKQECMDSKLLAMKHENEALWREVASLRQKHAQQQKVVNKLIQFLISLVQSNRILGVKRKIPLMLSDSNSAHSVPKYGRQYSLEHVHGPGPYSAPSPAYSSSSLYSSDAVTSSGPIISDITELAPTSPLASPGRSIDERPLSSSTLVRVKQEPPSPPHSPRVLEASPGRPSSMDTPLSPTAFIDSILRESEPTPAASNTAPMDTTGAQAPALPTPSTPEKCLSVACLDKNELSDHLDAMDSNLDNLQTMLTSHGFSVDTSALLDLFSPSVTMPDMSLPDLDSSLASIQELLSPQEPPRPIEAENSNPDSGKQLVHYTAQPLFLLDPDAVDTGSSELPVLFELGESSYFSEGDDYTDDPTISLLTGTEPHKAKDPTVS

[2] = cells
[3] = HEp-2 cell cytotoxicity, dose response, cytotoxicity control for RSV inhibitor project, HTS (AID 2410); format: functional; settings: human respiratory syncytial virus
[4] = biological target: T2, Dual specificity protein phosphatase 6 (Rattus norvegicus, UniProt Q64346);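 note: in vitro confirmatory secondary MKP-3 assay designed to detect irreversible or slow-binding inhibitors; recombinant His-tagged rat MKP-3 acting on the substrate OMFP; inhibitor potency from reduced phosphatase rate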
T2 sequence (Q64346 whole entry): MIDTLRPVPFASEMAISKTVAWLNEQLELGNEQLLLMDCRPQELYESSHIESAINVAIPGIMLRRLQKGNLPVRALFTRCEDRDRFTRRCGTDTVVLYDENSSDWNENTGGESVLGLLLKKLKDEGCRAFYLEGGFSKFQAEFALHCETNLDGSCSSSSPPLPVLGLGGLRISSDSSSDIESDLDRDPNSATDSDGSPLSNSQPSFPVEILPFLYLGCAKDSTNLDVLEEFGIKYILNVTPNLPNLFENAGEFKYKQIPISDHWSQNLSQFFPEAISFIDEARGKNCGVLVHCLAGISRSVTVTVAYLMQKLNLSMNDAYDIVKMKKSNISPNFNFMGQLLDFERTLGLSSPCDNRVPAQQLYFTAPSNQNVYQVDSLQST

[5] = biological target: T3, Tyrosine-protein phosphatase non-receptor type 7 (Homo sapiens, UniProt P35236); format: functional
T3 sequence (P35236 whole entry): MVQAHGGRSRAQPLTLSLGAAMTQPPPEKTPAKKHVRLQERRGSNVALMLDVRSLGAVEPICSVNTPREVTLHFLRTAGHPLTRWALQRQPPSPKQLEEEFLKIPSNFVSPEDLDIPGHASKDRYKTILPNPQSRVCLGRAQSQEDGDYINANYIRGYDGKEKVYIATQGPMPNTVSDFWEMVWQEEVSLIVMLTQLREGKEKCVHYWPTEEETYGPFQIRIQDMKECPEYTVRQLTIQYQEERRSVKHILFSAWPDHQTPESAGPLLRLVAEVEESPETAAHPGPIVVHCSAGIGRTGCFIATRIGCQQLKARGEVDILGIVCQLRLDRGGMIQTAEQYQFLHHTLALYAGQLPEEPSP

[6] = biological target: NS3 (Hepatitis C virus, UniProt A3EZJ3); assay: HCV NS3 helicase inhibitor potency, dose response, biochemical, fluorescence polarization, ChemBridge library (AID 743264)
Sequence of NS3 (A3EZJ3 whole entry): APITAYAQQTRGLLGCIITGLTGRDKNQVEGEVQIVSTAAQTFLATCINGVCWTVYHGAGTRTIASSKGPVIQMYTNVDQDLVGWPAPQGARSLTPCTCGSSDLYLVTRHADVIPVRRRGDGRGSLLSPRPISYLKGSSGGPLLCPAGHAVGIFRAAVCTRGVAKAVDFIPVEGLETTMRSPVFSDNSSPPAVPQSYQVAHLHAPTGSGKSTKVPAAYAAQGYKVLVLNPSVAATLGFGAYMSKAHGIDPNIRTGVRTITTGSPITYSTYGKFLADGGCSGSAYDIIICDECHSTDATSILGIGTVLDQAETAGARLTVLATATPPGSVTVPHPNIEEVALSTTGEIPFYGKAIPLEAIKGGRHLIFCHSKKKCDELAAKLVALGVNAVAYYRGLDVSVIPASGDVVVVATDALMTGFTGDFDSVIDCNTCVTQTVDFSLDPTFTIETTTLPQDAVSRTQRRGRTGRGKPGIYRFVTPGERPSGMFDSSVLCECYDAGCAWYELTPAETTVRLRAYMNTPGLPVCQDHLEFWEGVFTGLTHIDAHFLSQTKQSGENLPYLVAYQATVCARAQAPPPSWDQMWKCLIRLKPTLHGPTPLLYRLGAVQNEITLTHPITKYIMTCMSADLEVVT

[7] = biological target: Glyceraldehyde-3-phosphate dehydrogenase (Homo sapiens, UniProt P04406)
Sequence of Glyceraldehyde-3-phosphate dehydrogenase (P04406 whole entry): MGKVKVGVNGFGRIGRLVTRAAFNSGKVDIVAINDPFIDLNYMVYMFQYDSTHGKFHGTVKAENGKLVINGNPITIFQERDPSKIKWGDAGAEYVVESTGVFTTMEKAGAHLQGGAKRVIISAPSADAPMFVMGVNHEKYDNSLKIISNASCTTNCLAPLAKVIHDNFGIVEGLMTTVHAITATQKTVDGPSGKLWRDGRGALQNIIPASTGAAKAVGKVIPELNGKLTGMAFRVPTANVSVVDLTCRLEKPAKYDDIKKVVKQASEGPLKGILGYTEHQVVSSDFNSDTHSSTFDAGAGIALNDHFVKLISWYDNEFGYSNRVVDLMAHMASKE

[8] = biological target: T2, Dual specificity protein phosphatase 6; assay: MKP-3 phosphatase inhibitors, primary screen, biochemical, rat enzyme, in vitro (AID 425)
[9] = biological target: Large T antigen (Simian virus 40, UniProt P03070); format: functional, Betapolyomavirus macacae;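 note: Confirmatory-stage PubChem screen for compounds that inhibit SV40 T antigen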
Sequence of Large T antigen (P03070 whole entry): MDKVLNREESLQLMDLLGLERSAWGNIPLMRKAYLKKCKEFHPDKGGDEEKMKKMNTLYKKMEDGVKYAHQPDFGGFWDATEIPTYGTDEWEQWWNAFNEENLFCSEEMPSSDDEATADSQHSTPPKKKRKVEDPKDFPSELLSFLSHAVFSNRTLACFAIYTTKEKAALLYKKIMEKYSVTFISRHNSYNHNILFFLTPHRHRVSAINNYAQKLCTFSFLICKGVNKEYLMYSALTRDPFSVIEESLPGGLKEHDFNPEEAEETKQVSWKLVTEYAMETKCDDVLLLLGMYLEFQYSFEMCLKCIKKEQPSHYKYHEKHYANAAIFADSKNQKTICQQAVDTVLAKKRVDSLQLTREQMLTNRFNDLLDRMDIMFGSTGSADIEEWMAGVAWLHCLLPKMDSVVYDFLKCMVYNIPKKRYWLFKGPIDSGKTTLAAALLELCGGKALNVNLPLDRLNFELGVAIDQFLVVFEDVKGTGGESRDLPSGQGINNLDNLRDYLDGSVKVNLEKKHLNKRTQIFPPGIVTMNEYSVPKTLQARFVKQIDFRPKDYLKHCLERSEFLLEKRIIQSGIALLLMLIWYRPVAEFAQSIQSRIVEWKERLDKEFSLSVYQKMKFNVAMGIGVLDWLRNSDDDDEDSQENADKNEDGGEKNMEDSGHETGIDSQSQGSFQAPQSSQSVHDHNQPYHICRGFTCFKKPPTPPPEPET

[10] = biological target: Heat shock 70 kDa protein 1A (Homo sapiens, UniProt P0DMV8); assay: Hsp70 inhibitors, SAR follow-up, biochemical, fluorescence polarization (AID 1072)
Sequence of Heat shock 70 kDa protein 1A (P0DMV8 whole entry): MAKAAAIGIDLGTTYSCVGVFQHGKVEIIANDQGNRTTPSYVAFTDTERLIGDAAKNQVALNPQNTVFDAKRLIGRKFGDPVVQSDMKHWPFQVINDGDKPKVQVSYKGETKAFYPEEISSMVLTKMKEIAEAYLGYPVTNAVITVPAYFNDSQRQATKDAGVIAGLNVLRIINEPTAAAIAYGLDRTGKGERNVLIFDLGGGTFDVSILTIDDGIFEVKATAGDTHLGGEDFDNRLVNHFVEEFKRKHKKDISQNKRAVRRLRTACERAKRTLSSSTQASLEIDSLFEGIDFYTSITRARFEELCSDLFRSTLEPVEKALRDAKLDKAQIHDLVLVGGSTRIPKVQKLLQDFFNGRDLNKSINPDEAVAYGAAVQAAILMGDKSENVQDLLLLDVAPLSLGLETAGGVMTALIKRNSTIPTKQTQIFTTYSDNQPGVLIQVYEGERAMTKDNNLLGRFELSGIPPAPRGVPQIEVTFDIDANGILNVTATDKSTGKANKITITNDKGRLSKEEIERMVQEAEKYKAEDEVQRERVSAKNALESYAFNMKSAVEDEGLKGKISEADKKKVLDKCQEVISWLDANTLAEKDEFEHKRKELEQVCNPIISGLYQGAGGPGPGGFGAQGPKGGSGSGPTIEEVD

[11] = biological target: Heat shock cognate 71 kDa protein (Homo sapiens, UniProt P11142); assay: In Vitro Hsc70 Dose Response Fluorescence Polarization Assay. [Related pubchem assays: 1072 ]
Sequence of Heat shock cognate 71 kDa protein (P11142 whole entry): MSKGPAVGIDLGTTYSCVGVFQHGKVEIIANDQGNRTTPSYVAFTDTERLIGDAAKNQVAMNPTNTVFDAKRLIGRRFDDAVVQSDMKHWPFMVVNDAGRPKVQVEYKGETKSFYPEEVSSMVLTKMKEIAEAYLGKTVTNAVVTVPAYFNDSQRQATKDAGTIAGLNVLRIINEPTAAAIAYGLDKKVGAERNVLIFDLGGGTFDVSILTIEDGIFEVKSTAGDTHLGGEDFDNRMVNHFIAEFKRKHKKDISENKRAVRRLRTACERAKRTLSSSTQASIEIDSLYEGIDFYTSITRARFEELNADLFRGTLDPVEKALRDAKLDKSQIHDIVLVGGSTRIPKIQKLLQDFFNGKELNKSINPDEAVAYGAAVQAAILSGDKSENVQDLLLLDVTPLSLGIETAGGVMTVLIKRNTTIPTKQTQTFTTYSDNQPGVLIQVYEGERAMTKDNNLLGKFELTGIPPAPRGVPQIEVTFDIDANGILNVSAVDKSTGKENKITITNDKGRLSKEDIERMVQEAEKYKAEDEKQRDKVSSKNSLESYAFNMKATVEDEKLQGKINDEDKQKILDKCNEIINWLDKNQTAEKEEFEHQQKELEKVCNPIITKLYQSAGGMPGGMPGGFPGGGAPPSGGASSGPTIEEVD

[12] = biological target: Eukaryotic translation initiation factor 4E (Mus musculus, UniProt P63073); assay: eIF4E–eIF4G protein interaction inhibitors, dose response, biochemical, TR-FRET (AID 855); format: functional;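 note: potency for disrupting eIF4E binding to eIF4GI seen as loss of FRET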
Sequence of Eukaryotic translation initiation factor 4E (P63073 whole entry): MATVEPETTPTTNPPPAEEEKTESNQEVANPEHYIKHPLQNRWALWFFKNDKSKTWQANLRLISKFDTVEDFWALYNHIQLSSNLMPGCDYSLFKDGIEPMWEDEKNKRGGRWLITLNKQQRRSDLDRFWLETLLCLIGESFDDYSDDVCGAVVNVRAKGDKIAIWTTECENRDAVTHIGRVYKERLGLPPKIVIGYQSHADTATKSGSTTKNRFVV

[13] = biological target: Induced myeloid leukemia cell differentiation protein Mcl-1 (Homo sapiens, UniProt Q07820); format: functional
Sequence of Induced myeloid leukemia cell differentiation protein Mcl-1 (Q07820 whole entry): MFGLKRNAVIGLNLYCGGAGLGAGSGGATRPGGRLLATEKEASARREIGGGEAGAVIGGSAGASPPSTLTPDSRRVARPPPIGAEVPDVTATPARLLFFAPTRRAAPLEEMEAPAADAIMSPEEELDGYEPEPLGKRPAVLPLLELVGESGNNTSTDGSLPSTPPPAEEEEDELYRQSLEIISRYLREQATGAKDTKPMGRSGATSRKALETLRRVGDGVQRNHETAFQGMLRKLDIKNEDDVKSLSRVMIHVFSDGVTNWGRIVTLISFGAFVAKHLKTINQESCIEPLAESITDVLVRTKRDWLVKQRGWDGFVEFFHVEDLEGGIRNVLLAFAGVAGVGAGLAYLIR

| IC50 [4] | IC50 [5] | IC50 [6] | IC50 [7] | IC50 [8] | IC50 [9] | IC50 [10] | IC50 [11] | IC50 [12] | IC50 [13] | SMILES | EC50 [1] | IC50 [2] | CC50 [3] |
| --- | --- | --- | --- | --- | --- | --- | --- | --- | --- | --- | --- | --- | --- |
|  |  |  |  |  |  |  |  |  |  | COc1ccc(C(=O)N/C(=C\c2cccs2)c2nc3ccccc3[nH]2)cc1OC | > 195 µM (not active) | 25.6 µM (active) | > 50 µM (active) |
| 8 µM (active) | 15.6 µM (active) | 37.5 µM (inactive) | 70.7 µM (active) | > 10 µM (not active) | 9.1 µM (active) | 4.77 µM (active) | > 100 µM (not active) | 5.44 µM (active) | > 54 µM (active) | Cc1ccc2c(c1)C1C=CCC1C(C(=O)O)N2 (stereo not drawn) |  |  |  |
